The text below walks through data of patent US20230265151A1, “GIP/GLP1 CO-AGONIST COMPOUNDS” (priority 2020, published 2023).

Like-named read-outs stand apart in the source and are kept apart here.

What all share (type): cell-based
One assay concerns the target T1, hGIPR (Homo sapiens, UniProt P48546).
T1 construct: expressed in transfected cells
T1 sequence (P48546 22-466): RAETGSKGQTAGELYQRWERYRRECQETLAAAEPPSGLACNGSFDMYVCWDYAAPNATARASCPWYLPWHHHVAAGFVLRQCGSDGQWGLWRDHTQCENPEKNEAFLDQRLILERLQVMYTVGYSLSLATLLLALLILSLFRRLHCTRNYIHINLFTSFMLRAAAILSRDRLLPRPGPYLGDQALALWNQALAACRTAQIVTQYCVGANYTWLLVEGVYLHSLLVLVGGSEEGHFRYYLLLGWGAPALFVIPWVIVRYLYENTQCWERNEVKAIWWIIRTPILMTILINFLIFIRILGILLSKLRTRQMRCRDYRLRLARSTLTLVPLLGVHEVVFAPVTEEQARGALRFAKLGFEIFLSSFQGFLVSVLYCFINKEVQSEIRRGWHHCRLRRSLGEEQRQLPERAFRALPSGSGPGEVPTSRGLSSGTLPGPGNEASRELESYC
Description: Functional cAMP formation (HTRF) in HEK-293 clonal cells expressing hGIPR, 0.1% bovine casein, without or with 1.0% human serum albumin. Particulars: for EC50: cAMP. The essentials:
(§1)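 Cells were stimulated with peptide for 30 min at 37° C, then lysed in buffer carrying cAMP-d2 and anti-cAMP Eu3+-cryptate for a competitive HTRF read after at least 60 min at room temperature. The 665/620 nm ratio was converted to nM cAMP against a standard curve.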
A general note: cAMP levels reflect the balance of adenylyl cyclase and phosphodiesterase activity.

Another assay has as its target hGLP-1R (Homo sapiens, UniProt P43220). Put plainly: Functional cAMP formation (HTRF) in HEK-293 clonal cells expressing hGLP-1R, 0.1% bovine casein, without or with 1.0% human serum albumin. Further details: expressed in transfected cells. Particulars: for EC50: geometric mean. The essentials:
as §1

The target in a further assay is T2, hGCGR (Homo sapiens, UniProt P47871).
T2 construct: expressed in transfected cells
Put plainly: Functional cAMP formation (HTRF) in HEK-293 clonal cells expressing hGCGR, 0.1% bovine casein, without or with 1.0% human serum albumin. The essentials:
as §1

Setting [1] is: HEK293, 0.1% bovine casein and 1.0% human serum albumin, 37° C., percent of maximal response to GIP(1-42)NH2, read-out: hGIPR Emax, % ± SEM.
The mark [2] stands for this setting: HEK293, 0.1% bovine casein and 1.0% human serum albumin, 37° C., percent of maximal response to GLP-1(7-36)NH2, read-out: hGLP-1R Emax, % ± SEM.
The mark [3] stands for this setting: HEK293, percent of maximal response to GLP-1(7-36)NH2, 37° C., 0.1% bovine casein, arithmetic mean, read-out: hGLP-1R Emax, % ± SEM.
[4] abbreviates: 0.1% bovine casein and 1.0% human serum albumin, 37° C., geometric mean, read-out: hGCGR EC50, nM (SEM, n).
Setting [5] is: cAMP, incubated at 37° C., 0.1% bovine casein (no human serum albumin), geometric mean, read-out: hGCGR EC50, nM (SEM, n).

T2 sequence (P47871 26-477): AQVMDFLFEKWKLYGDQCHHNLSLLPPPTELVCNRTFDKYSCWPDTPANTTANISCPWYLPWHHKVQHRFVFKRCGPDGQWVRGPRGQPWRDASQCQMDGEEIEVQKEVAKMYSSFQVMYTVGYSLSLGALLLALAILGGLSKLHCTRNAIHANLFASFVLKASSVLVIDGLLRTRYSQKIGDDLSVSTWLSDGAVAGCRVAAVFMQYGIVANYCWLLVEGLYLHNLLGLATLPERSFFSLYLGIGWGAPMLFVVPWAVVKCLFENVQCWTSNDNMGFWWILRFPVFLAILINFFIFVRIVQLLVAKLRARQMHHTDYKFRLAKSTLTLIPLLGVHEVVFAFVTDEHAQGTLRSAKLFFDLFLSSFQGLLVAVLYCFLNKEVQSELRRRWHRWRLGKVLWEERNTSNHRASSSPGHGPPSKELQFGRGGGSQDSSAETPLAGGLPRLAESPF
Chain of hGLP-1R (P43220 24-463): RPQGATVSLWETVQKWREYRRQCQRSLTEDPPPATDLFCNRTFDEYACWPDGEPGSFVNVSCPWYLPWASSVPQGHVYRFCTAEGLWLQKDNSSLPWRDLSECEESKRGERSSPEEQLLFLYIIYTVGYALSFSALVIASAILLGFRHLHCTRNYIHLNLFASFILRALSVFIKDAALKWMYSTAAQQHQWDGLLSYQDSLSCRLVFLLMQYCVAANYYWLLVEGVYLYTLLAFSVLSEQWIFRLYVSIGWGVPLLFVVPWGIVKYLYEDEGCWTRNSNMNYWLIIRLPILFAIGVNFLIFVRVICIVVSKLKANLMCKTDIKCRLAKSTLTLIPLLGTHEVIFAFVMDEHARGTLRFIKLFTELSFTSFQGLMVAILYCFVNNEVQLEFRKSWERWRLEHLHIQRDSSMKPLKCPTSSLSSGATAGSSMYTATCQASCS

On to `CC[C@H](C)[C@H](NC(=O)[C@H](CC(C)C)NC(=O)[C@](C)(Cc1ccc(O)cc1)NC(=O)[C@@H](CCC(=O)O)NC(=O)[C@@H](NC(=O)[C@H](Cc1ccccc1Cl)NC(=O)[C@H](CCC(=O)O)NC(=O)C(C)(C)NC(=O)[C@H](CCC(N)=O)NC(=O)[C@H](C)NC(=O)[C@H](CCCCNC(=O)COCCOCCNC(=O)COCCOCCNC(=O)CC[C@H](NC(=O)CCCCCCCCCCCCC(=O)O)C(=O)O)NC(=O)[C@H](CCCN)NC(=O)[C@H](CC(=O)O)NC(=O)[C@H](CC(C)C)NC(=O)[C@](C)(CC(C)C)NC(=O)[C@@H](NC(=O)[C@H](CO)NC(=O)[C@H](Cc1ccncc1)NC(=O)[C@H](CC(=O)O)NC(=O)[C@H](CO)NC(=O)[C@@H](NC(=O)[C@](C)(Cc1ccccc1F)NC(=O)[C@@H](NC(=O)CNC(=O)[C@H](CCC(=O)O)NC(=O)C(C)(C)NC(=O)[C@@H](N)Cc1ccc(O)cc1)[C@@H](C)O)[C@@H](C)O)[C@@H](C)CC)[C@@H](C)CC)C(=O)N[C@@H](CCC(=O)O)C(=O)NCC(=O)NCC(=O)N[C@@H](CCCCNC(=O)COCCOCCNC(=O)COCCOCCNC(=O)CC[C@H](NC(=O)CCCCCCCCCCCCC(=O)O)C(=O)O)C(=O)N[C@@H](CO)C(=O)N[C@@H](CO)C(=O)NCC(=O)N[C@@H](C)C(=O)N1CCC[C@H]1C(=O)N1CCC[C@H]1C(=O)N1CCC[C@H]1C(=O)N[C@@H](CO)C(N)=O` [Example 61], for which the Emax on hGIPR (setting [1]) is 92.8%; on hGIPR (HEK293, percent of maximal response to GIP(1-42)NH2, 37° C., 0.1% bovine casein, arithmetic mean, read-out: hGIPR Emax, % ± SEM), 88.2%; at hGLP-1R (setting [2]), 89.7%; at hGLP-1R (setting [3]), 82.9%. The EC50 on hGIPR (incubated at 37° C., 0.1% bovine casein (no human serum albumin), geometric mean, read-out: hGIPR EC50, nM (SEM, n)) was 0.012 nM; on hGCGR (setting [4]), over 9950 nM; on hGCGR (setting [5]), over 9950 nM.

On to `CC[C@H](C)[C@H](NC(=O)[C@H](CC(C)C)NC(=O)[C@](C)(Cc1ccc(O)cc1)NC(=O)[C@H](CCCCNC(=O)CCCCCCCNC(=O)COCCOCCNC(=O)CC[C@H](NC(=O)CCCCCCCCCOc1ccc(C(=O)O)cc1)C(=O)O)NC(=O)[C@@H](NC(=O)[C@H](Cc1ccccc1)NC(=O)[C@H](CCCN)NC(=O)C(C)(C)NC(=O)[C@H](CCC(N)=O)NC(=O)[C@H](C)NC(=O)[C@H](CCC(N)=O)NC(=O)[C@H](CCCN)NC(=O)[C@H](CC(=O)O)NC(=O)[C@H](CC(C)C)NC(=O)[C@](C)(CC(C)C)NC(=O)[C@@H](NC(=O)C(C)(C)NC(=O)[C@H](Cc1ccncc1)NC(=O)[C@H](CC(=O)O)NC(=O)[C@H](CO)NC(=O)[C@@H](NC(=O)[C@](C)(Cc1ccccc1F)NC(=O)[C@@H](NC(=O)CNC(=O)[C@H](CCC(=O)O)NC(=O)C(C)(C)NC(=O)[C@@H](N)Cc1ccc(O)cc1)[C@@H](C)O)[C@@H](C)O)[C@@H](C)CC)[C@@H](C)CC)C(=O)N[C@@H](CCCCNC(=O)CCCCCCCNC(=O)COCCOCCNC(=O)CC[C@H](NC(=O)CCCCCCCCCOc1ccc(C(=O)O)cc1)C(=O)O)C(=O)NCC(=O)NCC(=O)N1CCC[C@H]1C(=O)N[C@@H](CO)C(=O)N[C@@H](CO)C(=O)NCC(=O)N[C@@H](C)C(=O)N1CCC[C@H]1C(=O)N1CCC[C@H]1C(=O)N1CCC[C@H]1C(=O)N[C@@H](CO)C(N)=O` [Example 456], for which the Emax is 94.7% on hGIPR (HEK293, read-out: hGIPR Emax, % ± SEM, cAMP, 37° C., 0.1% bovine casein and 1.0% human serum albumin, percent of maximal response to GIP(1-42)NH2); 112% at hGLP-1R (HEK293, read-out: hGLP-1R Emax, % ± SEM, cAMP, 37° C., 0.1% bovine casein and 1.0% human serum albumin, percent of maximal response to GLP-1(7-36)NH2); 116% at hGLP-1R (HEK293, read-out: hGLP-1R Emax, % ± SEM, cAMP, 37° C., 0.1% bovine casein, percent of maximal response to GLP-1(7-36)NH2, arithmetic mean). The EC50 is 0.0236 nM at hGIPR (hGIPR EC50, nM (SEM, n), 37° C., 0.1% bovine casein (no human serum albumin), geometric mean); 0.878 nM on hGIPR (hGIPR EC50, nM (SEM, n), 37° C., 0.1% bovine casein and 1.0% human serum albumin, geometric mean (SEM, n)); 0.341 nM on hGLP-1R (hGLP-1R EC50, nM (SEM, n), cAMP, 37° C., 0.1% bovine casein (no human serum albumin)); over 9950 nM at hGCGR (hGCGR EC50, nM (SEM, n), cAMP, 37° C., 0.1% bovine casein (no human serum albumin), geometric mean); over 9950 nM at hGCGR (hGCGR EC50, nM (SEM, n), cAMP, 37° C., 0.1% bovine casein and 1.0% human serum albumin, geometric mean (SEM, n)).

On to `CC[C@H](C)[C@H](NC(=O)[C@H](CCCN)NC(=O)[C@H](CC(=O)O)NC(=O)[C@H](CC(C)C)NC(=O)[C@](C)(CC(C)C)NC(=O)[C@@H](NC(=O)[C@H](CO)NC(=O)[C@H](Cc1ccncc1)NC(=O)[C@H](CC(=O)O)NC(=O)[C@H](CO)NC(=O)[C@@H](NC(=O)[C@](C)(Cc1ccccc1F)NC(=O)[C@@H](NC(=O)CNC(=O)[C@H](CCC(=O)O)NC(=O)C(C)(C)NC(=O)[C@@H](N)Cc1ccc(O)cc1)[C@@H](C)O)[C@@H](C)O)[C@@H](C)CC)C(=O)N[C@@H](C)C(=O)N[C@@H](CCC(N)=O)C(=O)NC(C)(C)C(=O)N[C@@H](CCC(=O)O)C(=O)N[C@@H](Cc1ccccc1)C(=O)N[C@H](C(=O)N[C@@H](CCCCNC(=O)COCCOCCNC(=O)COCCOCCNC(=O)CC[C@H](NC(=O)CCCc1ccc(C(C)(C)C)cc1)C(=O)O)C(=O)N[C@@](C)(Cc1ccc(O)cc1)C(=O)N[C@@H](CC(C)C)C(=O)N[C@H](C(=O)N[C@@H](CCCCNC(=O)COCCOCCNC(=O)COCCOCCNC(=O)CC[C@H](NC(=O)CCCc1ccc(C(C)(C)C)cc1)C(=O)O)C(=O)NCC(=O)NCC(=O)N1CCC[C@H]1C(=O)N[C@@H](CO)C(=O)N[C@@H](CO)C(=O)NCC(=O)N[C@@H](C)C(=O)N1CCC[C@H]1C(=O)N1CCC[C@H]1C(=O)N1CCC[C@H]1C(=O)N[C@@H](CO)C(N)=O)[C@@H](C)CC)[C@@H](C)CC` [Example 203], for which the maximum response (Emax) at hGIPR (setting [1]) was found to be 87.2%; at hGLP-1R (setting [2]), 105%; on hGLP-1R (setting [3]), 119%. Also, the concentration giving a half-maximal response (EC50) is 3.38 nM on hGLP-1R (0.1% bovine casein and 1.0% human serum albumin, 37° C., read-out: hGLP-1R EC50, nM (SEM, n)); 0.535 nM at hGLP-1R (cAMP, incubated at 37° C., 0.1% bovine casein (no human serum albumin), read-out: hGLP-1R EC50, nM (SEM, n)); over 9950 nM on hGCGR (setting [4]); over 9950 nM at hGCGR (setting [5]).

Usually Emax stands for the greatest response seen or fitted, relative to the assay's reference. A word on the EC50: it is the concentration at which the effect is half-maximal.
